Laboratory results: patent US6828092B1 (priority 1995, dated 2004)

How the values were obtained:
[1] = system: ACoAT promoter-β-galactosidase reporter gene in yeast strain MEY133::pACoAT (sterol biosynthesis); experiment: Reporter gene (β-galactosidase) induction assay in reporter yeast strain; type: cell-based, S. cerevisiae; conditions: for concentration above which reporter gene activity is induced: 24 hours at 30° C.; for reporter gene induction per cell: relative to basal
Method: Reporter gene induction is defined as:
where f refers to a final reading, and i to an initial reading. 100 to a concentration of 100 μg/ml and 10 to a concentration of 10 ng/ml. Reporter gene induction per cell is defined as: […]
(§1) Reporter gene activity assays (β-galactosidase assays) were performed using a single step procedure with the substrate chlorophenol red-β-D-galactopyranoside (CPRG, Boehringer): this substrate gives rise to a red product when cleaved by β-galactosidase. The appearance of this product can assessed by monitoring the optical density at 570 nm (OD570). The assays were performed in the wells of microtitre plates containing 200 μi of yeast in uracil-deficient medium. 50 μl of reaction mix was added to these wells, and immediately after this the absorption at 570 nm was measured using a Molecular Devices plate reader. Reaction mix was prepared as follows. 10×Z buffer (Ausabel et al) was prepared by dissolving 85.2 g Na2HPO4, 62.4 g NaH2PO4.2H2O, 7.5 g KCl and 2.46 g MgSO4.7H2O in 500 mls water. 2.7 mls β-mercaptoethanol was added to this solution and mixed. The pH was adjusted to pH 7 using 5M NaOH and the volume made up to 1 litre with water. 200 mls of reaction buffer was made by mixing 100 mls 10×Z buffer, 1.0 ml of 20% (w/v) sodium docedyl sulphate, 10 mls 50 mM CPRG and 89 mls water. After 2 hours a final OD570 reading was taken. Over this time frame, using the yeast strains descibed below, the rate of change of OD570 was constant. Therefore OD570final minus OD570 initial is taken as a measure of total reporter gene activity. OD570 initial is taken as a measurement of the number of cells in the culture, and reporter gene activity per cell is calculated as […].
Maximal induction of reporter gene activity by terbinafine in MEY133::pACoAT was obtained by:
(1) thawing a 1 ml aliquot of frozen stock and adding it to 100 ml of uracil deficient medium in a 500 ml conical flask and incubating for 24 hours at 30° C. with agitation to aerate the culture.
(2) diluting a sample of this culture with uracil deficient medium to give 100 mls of a culture with an optical density at 600 nm of 1.0 units, and incubating this culture for a further 24 hours in an incubator at 30° C. with agitation.
(§2) (3) diluting a sample of this culture with uracil deficient medium to give a culture with an optical density at 600 nm of 0.35 units. This culture was dispensed into 96 well flat-bottomed mucrotitre plates containing compounds. Each well contained 20 μl compound dissolved in 10% (v/v) dimethylsulphoxide. 180 μl culture was added each well. The plates were sealed with Titertex plate sealers and incubated for 24 hours at 30° C.
(§3) (4) The plates were removed from the incubator, and shaken to resuspend the yeast. The platesealers were removed and […] reaction mix added to each well. An initial OD570 reading was taken immediately following this addition. After a further two hours a final OD570 reading was taken. Optical density readings were taken with a Molecular Devices platereader using Softmax software. The machine was set to automatically agitate the samples before taking the reading.
(§4) The reporter gene in the yeast strain MEY133::ACoAT is induced by a range of sterol biosynthesis inhibitor. FIGS. 2-10 present dose-responses to nine different sterol biosynthesis inhibitors. The measurements of reporter gene activity and growth were obtained using the standard procedure described above. Each point on the graph is the average of three measurements, standard deviations being indicated by the error bars. In the absence of sterol biosynthesis inhibitors, a basal activity of the reporter gene is observed. This corresponds to a change in OD570 of 0.23 units/two hours (average of 15 measurements). During the period of time of the incubation the yeast cells grow to a density of 0.86 OD570 units (average of 15 measurements).

[2] = system: ACoAT promoter-β-galactosidase reporter gene in yeast strain MEY133::pACoAT (sterol biosynthesis); experiment: as above; type: cell-based, S. cerevisiae
[3] = system: yeast strain MEY133::pACoAT; experiment: Growth of reporter yeast strain (OD570); type: cell-based, S. cerevisiae; conditions: OD570, 24 hours incubation
Method: Reporter gene activity (OD570final−OD570initial) is indicated by solid squares. Growth (OD570 final) is indicated by open squares. Each point is the average of three measurements. Error bars indicate standard deviations.
as §1, §2, §3, §4

Squalene synthase = conditions: S. cerevisiae, application of inhibitor; cited from earlier work
[4] = system: lanosterol 14-a-demethylase gene induction; conditions: HMG1-deleted yeast; cited from earlier work

Row | Structure (SMILES) | reporter gene activity response (in words) ([1]; MEY133::pACoAT) | concentration above which reporter gene activity is induced ([1]; MEY133::pACoAT, dose-response) | growth inhibition (in words) [3] | also measured
1 | CCCCCCN1CCCC(Cc2ccc(C(C)(C)C)cc2)C1 (centres unmarked) [3-(4-t-butylbenzyl)-(N-hexyl)-piperidine] | very sharp | above 10 μg/ml |  | 
2 | CN(Cc1ccc(C(C)(C)C)cc1)Cc1cccc2ccccc12 [4-t-butyl-N-methyl-N-(I-naphthylmethyl)benzylamine] |  |  |  | reporter gene induction compared with terbinafine ([2]; at 10 μg/ml): much less active than terbinafine; reporter gene induction compared with terbinafine ([1]; at 100 μg/ml): to the same extent as terbinafine
3 | Nc1nc(=O)[nH]cc1F [5-flucytosine] | do not induce reporter gene activity |  |  | 
4 | CCC(C)(C)c1ccc(CC(C)CN2C[C@@H](C)O[C@@H](C)C2)cc1 (some centres unmarked) [Amorolfine] |  | above 1 μg/ml | some growth inhibitory properties | 
5 | CC(Cc1ccc(C(C)(C)C)cc1)CN1C[C@@H](C)O[C@@H](C)C1 (some centres unmarked) [Fenpropimorph] | induces reporter gene activity |  | inhibiting growth to some extent | 
6 | OC(Cn1cncn1)(c1ccc(F)cc1)c1ccccc1F (centres unmarked) [Flutriafol] |  |  | Some growth inhibition | concentration at which detectable reporter gene induction occurs ([1]; MEY133::pACoAT, dose-response): 0.1 µg/mL
7 | CC[C@H](C)C(=O)O[C@H]1C[C@@H](C)C=C2C=C[C@H](C)[C@H](CC[C@@H]3C[C@@H](O)CC(=O)O3)[C@H]21 [Lovastatin] |  | above 1 μg/ml |  | increase of squalene synthase levels (Squalene synthase): 2-3 fold; reporter gene induction per cell [1]: 5 fold
8 | C=C(CC[C@]12O[C@H](C(=O)O)[C@@](O)(C(=O)O)[C@](C(=O)O)(O1)[C@H](OC(=O)/C=C/[C@@H](C)C[C@@H](C)CC)[C@H]2O)[C@@H](OC(C)=O)[C@H](C)Cc1ccccc1 [Squalestatin] | biphasic response |  | growth inhibitory effect of squalestatin at higher concentrations | reporter gene activity per cell, comparison of concentrations ([2]; 10 μg/ml versus 100 μg/ml): almost identical; concentration of maximal reporter gene induction ([1]; MEY133::pACoAT, dose-response): 10 µg/mL
9 | CN(C/C=C/C#CC(C)(C)C)Cc1cccc2ccccc12 [Terbinafine] |  | above 1 μg/ml | inhibits growth to a limited extent | reporter gene induction per cell [1]: 9 fold
10 | C[C@@H]1[C@H](O)[C@@H](C)/C=C/C=C/C=C/C=C/C=C/C=C/C=C/[C@H](O[C@@H]2O[C@H](C)[C@@H](O)[C@H](N)[C@@H]2O)C[C@@H]2O[C@](O)(C[C@@H](O)C[C@@H](O)[C@H](O)CC[C@@H](O)C[C@@H](O)CC(=O)O[C@H]1C)C[C@H](O)[C@H]2C(=O)O [amphotericin B] | do not induce reporter gene activity |  |  | 
11 | Cc1cccc(N(C)C(=S)Oc2ccc3ccccc3c2)c1 [tolnaftate] |  |  |  | detection in Kirsch screen [4]: not detected
